In US20240228491A1, “METHIONINE ADENOSYLTRANSFERASE INHIBITOR, PREPARATION METHOD THEREFOR AND APPLICATION THEREOF” (SCINNOHUB PHARMACEUTICAL CO., LTD., priority 2021, published 2024):

Columns and labels:
[1] = system: DOHH-2 cells; experiment: Inhibitory activity test of DOHH-2 cells; assay type: cell-based; conditions: Homo sapiens, 120 h incubation, CellTiter-Glo, read-out: DOHH-2 cell inhibitory activity IC50
Procedure: On day 1, cell seeding: cells were resuspended to the desired density with DMEM complete medium (Gibico, Cat. No. 10569010) supplemented with 10% FBS (Gibco, 10099141C), mixed evenly, and added into the 384-well plate at 30 μL/well with a cell density of 800/well. The compounds to be tested were added as follows: 30 nL of DMSO solution containing the compound (the concentration of the compound in which was formulated as: 3-fold gradient dilution from 10 mM, 10 concentration points in total) was added, incubated for 120 h at 37° C., 5% CO2. On day 6, the cells treated with compounds were removed and equilibrated to room temperature, 30 μL of CellTiter-Glo (Promega company, Cat. No. G7573) reagent was added per well, and the cells were fully lysed by shaking at room temperature, and then incubated in dark at 37° C., 5% CO2 for 30 min, to detect the fluorescence intensity.
% Inhibition=100−(signal of the well with the compound to be tested−signal of the well with only medium and free of cells)/(signal of the well with cells but without the addition of the compound−signal of the well with only medium and free of cells)×100.
(§1) The log value of concentration was used as the X-axis and % Inhibition was used as the Y-axis, so as to fit the dose-effect curve and calculate the IC50 value using nonlinear regression (dose response−variable slope) in the analysis software GraphPad Prism 8.

[2] = molecular target: MAT2a (Homo sapiens (Human), UniProt P31153); experiment: MAT2a enzymatic activity test (colorimetric assay); assay type: biochemical; conditions: OD620, 150 min reaction, read-out: IC50 against MAT2a
Chain of MAT2a (P31153 whole entry): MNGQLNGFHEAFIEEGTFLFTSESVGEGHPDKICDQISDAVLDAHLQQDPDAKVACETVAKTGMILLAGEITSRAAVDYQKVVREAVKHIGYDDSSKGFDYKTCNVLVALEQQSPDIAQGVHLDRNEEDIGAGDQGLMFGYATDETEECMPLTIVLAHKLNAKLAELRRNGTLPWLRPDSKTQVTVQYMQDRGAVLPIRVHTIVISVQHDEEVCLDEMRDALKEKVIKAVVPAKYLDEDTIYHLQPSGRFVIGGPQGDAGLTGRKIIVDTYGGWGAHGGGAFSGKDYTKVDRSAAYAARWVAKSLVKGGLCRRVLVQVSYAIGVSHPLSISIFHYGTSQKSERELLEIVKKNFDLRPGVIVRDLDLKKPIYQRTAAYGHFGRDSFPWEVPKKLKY
Procedure: The Colorimetric assay method was used to detect the IC50 value of the tested compounds on MAT2a.
The specific steps were as follows: The compounds having the test starling concentration of 1 μM or 10 μM were diluted into 10 concentration points in a 3-fold gradient. 250 nL of the solutions of the compounds to be tested with 10 different concentrations were taken and added into a 384 well plate for later use. 20 μg/mL of MAT2a enzyme solution was prepared with Assay buffer (50 mM Tris, 50 mM KCl, 10 mM MgCl2, 0.05% polyoxyethylene lauryl ether, pH 8.0). 15 μL of the MAT2a enzyme solution at 20 μg/mL was add into the wells of the compounds to be tested at different concentrations; and 15 μL of Assay buffer was added into the negative control well. An incubation was carried out for 15 minutes after shaking for mixing well. A mixed substrate solution (comprising 400 μM ATP and 600 μM L-Methionine) was prepared with Assay buffer. 10 μL of the mixed substrate solution was added to the positive control well, the compound to be tested well, and the negative control well, respectively, and the reaction began, for a reaction time of 150 min. Then, 50 μL of the reaction stop solution (BIOMOL Green™ Reagent Enzo lifesciences, Cargo No. BML-AK111-1000) was added to stop the reaction, followed by being centrifuged at 1000 rpm for 60 s and then being incubated for 15 min. OD620 was read and data were processed.
By using the log value of the concentration as the X-axis and the inhibition % as the Y-axis, the IC50 value of each compound against enzyme activity was obtained through employing the log(inhibitor) vs. response-Variable slope fitting dose-effect curve of the analysis software GraphPad Prism 5.

[3] = system: HCT116 MTAP-/- cells; experiment: Activity test of HCT116 MTAP gene homozygous deletion cells (CellTiter-Glo); assay type: cell-based; conditions: Homo sapiens, HCT-116, 120 h incubation, read-out: HCT116 MTAP-/- Cell IC50
Procedure: On day 1, cell seeding: after digestion of the cells with trypsin, the cells were resuspended to the desired density with the complete medium (RPMI-1640 supplemented with 10% FBS; the brand of FBS is EXCELL, Cat. No. FND500; the brand of RPMI-1640 is ATCC, Cat. No. 30-2001), mixed evenly, and added into the 96-well plate at 100 μL/well with a cell density of 1000-3000 cells per well. The plate was put back to the incubator for the adherent growth of cells. On day 2, the addition of the compounds to be tested: before the addition of the compounds, the cells were starved with serum-free medium for 4 h, then the complete medium containing the corresponding concentration of compounds was added thereto, and the cells were incubated at 37° C., 5% CO2 for 120 h. On day 7, the cell culture plates were taken out from incubator and equilibrated to room temperature. 50 μL of CellTiter-Glo (Promega Company, Cat. No. G7571) reagent was added per well, and the cells were fully lysed by shaking at room temperature for 2 min, and then incubated for another 60 min to detect the fluorescence intensity. Calculation formula:
(§2) % Inhibition=100−(signal of the well with the compound to be tested−signal of the well with only medium and free of cells)/(signal of the well with cells but without addition of the compound−signal of the well with only medium and free of cells)×100.
The fitting dose-effect curve of the analysis software GraphPad Prism 5 was used to give IC50 values of the individual compounds against cellular activity.

[4] = system: KP-4 cells; experiment: Inhibitory activity test of KP-4 cells; assay type: cell-based; conditions: Homo sapiens, 144 h incubation, read-out: KP-4 cell inhibitory activity IC50
Procedure: On day 1, cell seeding: after digestion of the cells with trypsin, the cells were resuspended to 1*10^4/mL with RPMI1640 complete medium (HyClone Company, Cat. No. SH30809.01) supplemented with 10% FBS (Gibco, 10099141C), mixed evenly, and added into the 96-well plate at 100 μL/well. The plate was put back to the incubator for the adherent growth of cells. On day 2, the addition of the compounds to be tested: 100 μL of the complete medium containing the compounds (the concentration of the compound in the medium was formulated as follows: 3-fold gradient dilution from 60 μM, 10 concentration gradients in total) was added, incubated for 144 hours at 37° C., 5% CO2. On day 8, the cell culture plates were taken out from incubator and equilibrated to room temperature, excess medium was pipetted from the wells so that 50 μL of supernatant was retained, and 50 μL of CellCounting-Lite 2.0 (Nanjing Vazyme Biotech Co., Ltd., Cat. No. DD1101) reagent was added per well, and the cells were fully lysed by shaking at room temperature for 10 min, and incubated for 5 min to detect the fluorescence intensity.
as §2, §1

Compound	IC50 [2] [nM]	IC50 [3] [nM]	IC50 [4] [nM]	IC50 [1] [nM]
Nc1c(-n2cncn2)c(=O)n(-c2ccc(Cl)cc2)c2nc(C(F)(F)F)ccc12 [Example 41]	18.4	–	3080	–
CNc1c(-c2ccc(F)cc2)c(=O)n(-c2ccccc2)c2nc(C(F)(F)F)ccc12 [Example 26]	17.8	617	10200	–
Nc1c(-c2ccc3nccnc3n2)c(=O)n(-c2ccc(Cl)cc2)c2nc(C(F)(F)F)ccc12 [Example 67]	18.1	16.3	750	–
Nc1c(-n2cccn2)c(=O)n(-c2ccc(Cl)cc2)c2nc(C(F)(F)F)ccc12 [Example 38]	18.1	–	910	–
Nc1c(-c2ccc3nonc3c2)c(=O)n(-c2ccc(Cl)cc2)c2nc(C(F)(F)F)ccc12 [Example 69]	16.6	–	–	663
CNc1c(-n2cccn2)c(=O)n(-c2ccccc2)c2nc(C(F)(F)F)ccc12 [Example 15, 4-(methylamino)-1-phenyl-3-(1H-pyrazol-1-yl)-7-(trifluoromethyl)-1,8-naphthyridin-2(1H)-one]	23.2	345	9730	–
CNc1c(-c2ccc3ncn(C)c3c2)c(=O)n(-c2ccccc2)c2nc(C(F)(F)F)ccc12 [Example 27]	17.5	231	1620	–
Nc1ccc(-c2c(N)c3ccc(C(F)(F)F)nc3n(-c3ccc(Cl)cc3)c2=O)cc1 [Example 43]	22	–	480	–
Cn1cnc2ccc(-c3c(N)c4ccc(C(F)(F)F)nc4n(-c4ccc(Cl)cc4)c3=O)cc21 [Example 23]	16.5	23	610	–
Nc1c(-n2cccc2)c(=O)n(-c2ccc(Cl)cc2)c2nc(C(F)(F)F)ccc12 [Example 3, 4-amino-1-(4-chlorophenyl)-3-(1H-pyrrol-1-yl)-7-(trifluoromethyl)-1,8-naphthyridin-2(1H)-one]	12.7	12.7	170	–
CS(=O)(=O)CCn1ncc2cc(-c3c(N)c4ccc(C(F)(F)F)nc4n(-c4ccc(Cl)cc4)c3=O)ccc21 [Example 52]	16.2	–	760	–
CNc1c(-c2nnco2)c(=O)n(-c2ccccc2)c2nc(C(F)(F)F)ccc12 [Example 6, 4-(methylamino)-3-(1,3,4-oxadiazol-2-yl)-1-phenyl-7-(trifluoromethyl)-1,8-naphthyridin-2(1H)-one]	40.5	494	–	–
Nc1c(-c2ccc3nnccc3c2)c(=O)n(-c2ccc(Cl)cc2)c2nc(C(F)(F)F)ccc12 [Example 55]	16.3	23.3	500	–
Nc1c(-c2ccncn2)c(=O)n(-c2ccc(Cl)cc2)c2nc(C(F)(F)F)ccc12 [Example 39]	19.8	–	410	–
Cn1nnc2ccc(-c3c(N)c4ccc(C(F)(F)F)nc4n(-c4ccc(Cl)cc4)c3=O)cc21 [Example 63]	17.8	21.5	–	–

Continued, in another order:

IC50 [2] [nM]	IC50 [3] [nM]	IC50 [4] [nM]	Compound	IC50 [1] [nM]
15.4	13.4	–	Cc1ccc(-n2c(=O)c(-c3ccco3)c(N)c3ccc(C(F)(F)F)nc32)cc1 [Example 31]	430
15	8.38	480	Nc1c(-c2ccc(F)cc2)c(=O)n(-c2ccc(Cl)cc2)c2nc(C(F)(F)F)ccc12 [Example 42]	–
13.6	15.2	550	COCCn1ncc2cc(-c3c(N)c4ccc(C(F)(F)F)nc4n(-c4ccc(Cl)cc4)c3=O)ccc21 [Example 47]	559
14.4	21.2	240	Nc1c(-c2ccc3c(c2)OCCO3)c(=O)n(-c2ccc(Cl)cc2)c2nc(C(F)(F)F)ccc12 [Example 53]	–
14.5	17.8	1110	COc1cc(-c2c(N)c3ccc(C(F)(F)F)nc3n(-c3ccc(Cl)cc3)c2=O)ccn1 [Example 56]	–
16.2	–	960	Nc1c(-c2ccc3c(c2)NC(=O)CO3)c(=O)n(-c2ccc(Cl)cc2)c2nc(C(F)(F)F)ccc12 [Example 54]	–
14.8	6.37	190	Nc1c(-c2ccc3ncccc3c2)c(=O)n(-c2ccc(Cl)cc2)c2nc(C(F)(F)F)ccc12 [Example 45]	–
11.5	24.5	650	COc1ccc(-c2c(N)c3ccc(C(F)(F)F)nc3n(-c3ccc(Cl)cc3)c2=O)cn1 [Example 20]	48
13.4	22.3	550	Nc1c(-c2ccco2)c(=O)n(-c2ccc(Cl)cc2)c2nc(C(F)(F)F)ccc12 [Example 30, 4-amino-1-(4-chlorophenyl)-3-(furan-2-yl)-7-(trifluoromethyl)-1,8-naphthyridin-2(1H)-one]	–
16.2	22.9	270	Nc1c(-c2ccc3ncsc3c2)c(=O)n(-c2ccc(Cl)cc2)c2nc(C(F)(F)F)ccc12 [Example 21]	507
15.1	20.2	180	Nc1c(-c2ccc3ncncc3c2)c(=O)n(-c2ccc(Cl)cc2)c2nc(C(F)(F)F)ccc12 [Example 46]	251
13.4	18.6	490	Cn1cc(-c2c(N)c3ccc(C(F)(F)F)nc3n(-c3ccc(Cl)cc3)c2=O)ccc1=O [Example 44]	495
15	20.9	730	Nc1c(-c2ccc3ncoc3c2)c(=O)n(-c2ccc(Cl)cc2)c2nc(C(F)(F)F)ccc12 [Example 22]	–
13.3	13	1220	Cn1cc2cc(-c3c(N)c4ccc(C(F)(F)F)nc4n(-c4ccc(Cl)cc4)c3=O)ccc2n1 [Example 25]	507
12.3	13.1	890	Nc1c(-c2ccc3c(c2)OCO3)c(=O)n(-c2ccc(Cl)cc2)c2nc(C(F)(F)F)ccc12 [Example 19]	–
15.6	11.5	100	COc1ccc(-c2c(N)c3ccc(C(F)(F)F)nc3n(-c3ccc(Cl)cc3)c2=O)cc1 [Example 24]	–
